Measurements reported in patent publication US20210292710A1, “METHOD FOR ENHANCING IMMUNE FUNCTION OF IMMUNE CELL AND IMMUNE CELL LINE PRODUCED USING THE SAME” (INDUSTRY-ACADEMIC COOPERATION FOUNDATION, YONSEI UNIVERSITY, priority 2020, published 2021).

System: GLUT1
Test: GLUT1 expression in T cell based on type of PI3K inhibitor
Description: More specifically, referring to (a) of FIG. 12, the results of GLUT1 expression according to the type of PI3K inhibitor in the helper T cell are shown. In this connection, the PI3K inhibitor may include BKM 120 that may inhibit all subtypes, CAL-101 that may inhibit only p110δ, IPI-145 capable of inhibiting p110γ and P110δ, BYLT719 capable of inhibiting only p110α, and TGX-211 capable of inhibiting only p110β.
Referring to (b) of FIG. 12, the results of GLUT1 expression according to the type of PI3K inhibitor in cytotoxic T cells are shown.

For CC[C@H](Nc1ncnc2[nH]cnc12)c1nc2cccc(F)c2c(=O)n1-c1ccccc1 [CAL-101, idelalisib], which “GLUT1 expression level versus BYLT719 and TGX-211 inhibitors” value (cytotoxic T cells) is on record?
The value was “higher GLUT1 expression levels”.

And the “GLUT1 expression level versus BYLT719 and TGX-211 inhibitors” value (helper T cell)?
Its value is “higher GLUT1 expression levels”.
